This note sets out measurements from patent publication US20250179061A1 (SIRONAX LTD., priority 2022, published 2025).

Read-outs that look alike come from different tables or passages of the source. Bounds are passed on as bounds.

The subject of this experiment is HT-29 cells. Kind of experiment: HT-29 necroptosis cell viability assay (TNF-α/SMAC mimetic/zVAD-FMK, CellTiter-Glo). Type of experiment: cell-based. Put shortly: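 Necroptosis was triggered by TNF-α (10 ng/ml), SMAC mimetic (6 μM) and zVAD-FMK (10 μM) in serum-free medium during 20 h compound exposure (10 concentrations, threefold steps) of HT-29 cells. IC50 from duplicate dose-responses uses CellTiter-Glo ATP luminescence as viability read-out.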
A general note: Cellular ATP, detected with luciferase, serves as a proxy for viable cell number.

Where [1] appears, read: Homo sapiens, HT-29, HT-29 necroptosis cell viability assay, class symbols for IC50, read-out: Activity.
Setting [2] is: Homo sapiens, HT-29 cells stimulated with TNF-α (10 ng/ml), SMAC mimetic (6 μM) and zVAD-FMK (10 μM), 20 hours, CellTiter-Glo ATP luminescence, geometric mean IC50 from 10 points, read-out: Activity.
The mark [3] stands for this setting: Homo sapiens, HT-29, HT-29 necroptosis cell viability, IC50 class symbols, read-out: Activity.
Setting [4] is: Homo sapiens, HT-29, HT-29 cells, necroptosis induced by TNF-α/SMAC mimetic/zVAD-FMK, CellTiter-Glo, read-out: Activity (IC50 class).

Take `CC(C)(C)OC(=O)N1CCC2(CC1)CN(c1cc(Oc3ccc(-n4ncn(Cc5c(F)cccc5F)c4=O)cc3)ccn1)C2` [Example 480, tert-butyl2-(4-(4-(4-(2,6-difluorobenzyl)-5-oxo-4,5-dihydro-1H-1,2,4-triazol-1-yl)phenoxy)pyridin-2-yl)-2,7-diazaspiro[3.5]nonane-7-carboxylate]: under setting [1], the IC50 is less than 100 nM.
For `Cc1nc(C)c(Oc2ccc(-n3ncn(Cc4c(F)cccc4F)c3=O)cc2)s1` [Example 97, 4-(2,6-difluorobenzyl)-2-(4-((2,4-dimethylthiazol-5-yl)oxy)phenyl)-2,4-dihydro-3H-1,2,4-triazol-3-one], under setting [2], the IC50 was less than 100 nM.
On to `COC1(C#N)CN(c2cc(Oc3ccc(-n4ncn(Cc5c(F)cccc5F)c4=O)cc3F)c(F)cn2)C1` [Example 230, 1-(4-(4-(4-(2,6-difluorobenzyl)-5-oxo-4,5-dihydro-1H-1,2,4-triazol-1-yl)-2-fluorophenoxy)-5-fluoropyridin-2-yl)-3-methoxyazetidine-3-carbonitrile], for which the IC50 under setting [3] was less than 100 nM.
Consider `CCOC(=O)c1cc(C)n(Cc2ccc(-n3ncn(Cc4c(F)cccc4F)c3=O)cc2F)n1` [Example 198, ethyl 1-(4-(4-(2,6-difluorobenzyl)-5-oxo-4,5-dihydro-1H-1,2,4-triazol-1-yl)-2-fluorobenzyl)-5-methyl-1H-pyrazole-3-carboxylate], for which the IC50 under setting [1] fell in the range of 100 to 1000 nM.
With `N#CC1CCCN(c2cc(Oc3ccc(-n4ncn(Cc5c(F)cccc5F)c4=O)cc3)ccn2)C1` (stereo not drawn) [Example 277, 1-(4-(4-(4-(2,6-difluorobenzyl)-5-oxo-4,5-dihydro-1H-1,2,4-triazol-1-yl)phenoxy)pyridin-2-yl)piperidine-3-carbonitrile], under setting [3], the IC50 is 100 to 1000 nM.
`Cc1cc(C(=O)O)nn1Cc1ccc(-n2ncn(Cc3c(F)cccc3F)c2=O)cc1F` [Example 216, 1-(4-(4-(2,6-difluorobenzyl)-5-oxo-4,5-dihydro-1H-1,2,4-triazol-1-yl)-2-fluorobenzyl)-5-methyl-1H-pyrazole-3-carboxylic acid]: under setting [1], the IC50 was in the range of 1000 to 10000 nM.
For the compound `CC1(O)CN(c2nc(C(F)F)c(Oc3ccc(-n4ncn(Cc5c(F)cccc5F)c4=O)cc3F)s2)C1` [Example 144, 4-(2,6-difluorobenzyl)-2-(4-((4-(difluoromethyl)-2-(3-hydroxy-3-methylazetidin-1-yl)thiazol-5-yl)oxy)-3-fluorophenyl)-2,4-dihydro-3H-1,2,4-triazol-3-one], the IC50 under setting [1] was less than 100 nM.
In the case of `Cc1ncsc1Oc1ncc(-n2ncn(Cc3c(F)cccc3F)c2=O)cc1F` [Example 644, 4-(2,6-difluorobenzyl)-2-(5-fluoro-6-((4-methylthiazol-5-yl)oxy)pyridin-3-y1)-2,4-dihydro-3H-1,2,4-triazol-3-one], the IC50 under setting [4] is less than 100 nM.
For `CC1(C#N)CCN(c2cc(Oc3ccc(-n4ncn(Cc5c(F)cccc5F)c4=O)cc3F)c(F)cn2)C1` (stereo not drawn) [Example 394, 1-(4-(4-(4-(2,6-difluorobenzyl)-5-oxo-4,5-dihydro-1H-1,2,4-triazol-1-yl)-2-fluorophenoxy)-5-fluoropyridin-2-yl)-3-methylpyrrolidine-3-carbonitrile], the IC50 under setting [3] was less than 100 nM.
For the compound `C[C@@H]1[C@H](C#N)CN1c1nccc(Oc2ccc(-n3ncn(Cc4c(F)cccc4F)c3=O)cc2F)c1F` [Example 389, (2R,3R)-1-(4-(4-(4-(2,6-difluorobenzyl)-5-oxo-4,5-dihydro-1H-1,2,4-triazol-1-yl)-2-fluorophenoxy)-3-fluoropyridin-2-yl)-2-methylazetidine-3-carbonitrile], the IC50 under setting [3] is less than 100 nM.
Take `O=C1CC2(CCOCC2)CN1c1cc(Oc2ccc(-n3ncn(Cc4c(F)cccc4F)c3=O)cc2)ccn1` [Example 482, 2-(4-(4-(4-(2,6-difluorobenzyl)-5-oxo-4,5-dihydro-1H-1,2,4-triazol-1-yl)phenoxy)pyridin-2-yl)-8-oxa-2-azaspiro[4.5]decan-3-one]: the IC50 under setting [1] was in the range of 100 to 1000 nM.
`Cc1csc(COc2ccc(-n3ncn(Cc4c(F)cccc4F)c3=O)cc2)n1` [Example 98, 4-(2,6-difluorobenzyl)-2-(4-((4-methylthiazol-2-yl)methoxy)phenyl)-2,4-dihydro-3H-1,2,4-triazol-3-one]: the IC50 under setting [2] lay in the range of 100 to 1000 nM.
For `Cc1cc(C#N)c(C)n1Cc1ccc(-n2ncn(Cc3c(F)cccc3F)c2=O)cc1F` [Example 124, 1-(4-(4-(2,6-difluorobenzyl)-5-oxo-4,5-dihydro-1H-1,2,4-triazol-1-yl)-2-fluorobenzyl)-2,5-dimethyl-1H-pyrrole-3-carbonitrile], the IC50 under setting [1] was less than 100 nM.
As to `Cc1nc(C2=CCOCC2)sc1Oc1ccc(-n2ncn(Cc3c(F)cccc3F)c2=O)cc1` [Example 631, 4-(2,6-difluorobenzyl)-2-(4-((2-(3,6-dihydro-2H-pyran-4-yl)-4-methylthiazol-5-yl)oxy)phenyl)-2,4-dihydro-3H-1,2,4-triazol-3-one], the IC50 under setting [4] was less than 100 nM.
On to `CC(C)(C)OC(=O)N1CC2(CCN2c2cc(Oc3ccc(-n4ncn(Cc5c(F)cccc5F)c4=O)cc3)ccn2)C1` [Example 499, tert-butyl 1-(4-(4-(4-(2,6-difluorobenzyl)-5-oxo-4,5-dihydro-1H-1,2,4-triazol-1-yl)phenoxy)pyridin-2-yl)-1,6-diazaspiro[3.3]heptane-6-carboxylate], for which the IC50 under setting [1] lay in the range of 100 to 1000 nM.
Take `Cc1nc(Oc2ccncc2)sc1-n1ncn(Cc2c(F)cccc2F)c1=O` [Example 11, 4-(2,6-difluorobenzyl)-2-(4-methyl-2-(pyridin-4-yloxy)thiazol-5-yl)-2,4-dihydro-3H-1,2,4-triazol-3-one]: the IC50 under setting [2] is more than 10000 nM.
On to `COC(=O)c1ncsc1Oc1ccc(-n2ncn(Cc3c(F)cccc3F)c2=O)cc1F` [Example 128, methyl 5-(4-(4-(2,6-difluorobenzyl)-5-oxo-4,5-dihydro-1H-1,2,4-triazol-1-yl)-2-fluorophenoxy)thiazole-4-carboxylate], for which, under setting [1], the IC50 was 100 to 1000 nM.
For `O=c1n(Cc2c(F)cccc2F)cnn1-c1cnc(Oc2ccccc2)s1` [Example 165, 4-(2,6-difluorobenzyl)-2-(2-phenoxythiazol-5-yl)-2,4-dihydro-3H-1,2,4-triazol-3-one], under setting [1], the IC50 fell in the range of 100 to 1000 nM.
For `C[C@H]1C[C@@H](C#N)CN1c1cc(Oc2ccc(-n3ncn(Cc4c(F)cccc4F)c3=O)cc2)ccn1` [Example 282, (3R,5S)-1-(4-(4-(4-(2,6-difluorobenzyl)-5-oxo-4,5-dihydro-1H-1,2,4-triazol-1-yl)phenoxy)pyridin-2-yl)-5-methylpyrrolidine-3-carbonitrile], the IC50 under setting [3] was less than 100 nM.
Take `Cc1nc(C2CC(C(N)=O)C2)sc1Oc1ccc(-n2ncn(Cc3c(F)cccc3F)c2=O)cc1F` (stereo not drawn) [Example 167, 3-(5-(4-(4-(2,6-difluorobenzyl)-5-oxo-4,5-dihydro-1H-1,2,4-triazol-1-yl)-2-fluorophenoxy)-4-methylthiazol-2-yl)cyclobutane-1-carboxamide]: under “HT-29 necroptosis cell viability assay, class symbols for IC50, read-out: Activity”, the IC50 was less than 100 nM.
Consider `N#CC12CC(Nc3nccc(Oc4ccc(-n5ncn(Cc6c(F)cccc6F)c5=O)cc4Cl)c3Cl)(C1)C2` [Example 313, 3-((3-chloro-4-(2-chloro-4-(4-(2,6-difluorobenzyl)-5-oxo-4,5-dihydro-1H-1,2,4-triazol-1-yl)phenoxy)pyridin-2-yl)amino)bicyclo[1.1.1]pentane-1-carbonitrile], for which the IC50 under setting [3] fell in the range of 100 to 1000 nM.
